Patent EP4745134A1 (Jiangsu Yahong Meditech Co., Ltd., priority 2023, dated 2025)
Like-named read-outs stand apart in the source and are kept apart here.

How the values were obtained:
HCT116 MTAP KO cells = experiment: Inhibitory activity against cell proliferation (CellTiter Glo, 6 days), HCT116 MTAP KO; assay type: cell-based; conditions: for IC50: Homo sapiens, HCT-116, 144 h, HCT116 MTAP KO cells, 6 days, CellTiter Glo, read-out: HCT116 MTAP KO IC50; for Selectivity HCT 116-WT/ HCT116 MTAP KO: ratio of IC50 HCT116-WT / HCT116 MTAP KO
Summary of the method: (§1)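 Following overnight attachment of 250 cells per well in McCoy's 5A medium with 10% FBS, compounds spanning 8 concentrations (4-fold, top 10000 nM) were applied for 6 days. Growth inhibition IC50 was derived from luminescent ATP signal.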

PRMT5-MTA = PRMT5-MTA (Homo sapiens, UniProt O14744); experiment: Enzymatic inhibitory activity against PRMT5-MTA (AlphaScreen); assay type: biochemical
Summary of the method: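 PRMT5/[…] (1 nM) was preincubated for 30 min at room temperature with 1 µM […] and 2.5 µM SAM, then exposed to compound (10-point, 3-fold from 1000 nM) for 15 min at 23 °C. Histone H4 substrate (5 nM) was added and reacted for 45 min at 23 °C. Symmetric dimethyl-R3 H4 was detected by AlphaScreen and IC50 calculated.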

HCT116-WT cells = experiment: Inhibitory activity against cell proliferation (CellTiter Glo, 6 days), HCT116-WT; assay type: cell-based; conditions: 144 h, HCT116-WT cells, 6 days, CellTiter Glo; read-out: HCT116-WT IC50
Summary of the method: as §1

Sequence of PRMT5-MTA (O14744 whole entry): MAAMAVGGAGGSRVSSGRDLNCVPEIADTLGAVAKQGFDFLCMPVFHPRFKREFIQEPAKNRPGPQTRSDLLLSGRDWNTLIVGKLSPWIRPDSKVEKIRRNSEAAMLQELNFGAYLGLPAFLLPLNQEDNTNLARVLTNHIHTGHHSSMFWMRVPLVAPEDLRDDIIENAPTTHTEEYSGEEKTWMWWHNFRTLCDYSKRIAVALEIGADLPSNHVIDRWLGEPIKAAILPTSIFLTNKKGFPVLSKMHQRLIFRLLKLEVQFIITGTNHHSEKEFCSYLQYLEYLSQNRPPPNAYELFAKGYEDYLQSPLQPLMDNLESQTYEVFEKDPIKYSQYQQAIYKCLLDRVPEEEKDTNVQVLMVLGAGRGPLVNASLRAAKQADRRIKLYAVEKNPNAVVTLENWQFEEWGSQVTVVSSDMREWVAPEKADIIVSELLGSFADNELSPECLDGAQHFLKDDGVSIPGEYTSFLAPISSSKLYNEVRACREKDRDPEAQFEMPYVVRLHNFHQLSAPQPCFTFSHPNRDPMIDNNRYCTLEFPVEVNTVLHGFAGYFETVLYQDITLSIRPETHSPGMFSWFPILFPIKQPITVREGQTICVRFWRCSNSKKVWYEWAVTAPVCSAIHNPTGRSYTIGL
Sequence of PRMT5-MTA (Q9BQA1 whole entry partner): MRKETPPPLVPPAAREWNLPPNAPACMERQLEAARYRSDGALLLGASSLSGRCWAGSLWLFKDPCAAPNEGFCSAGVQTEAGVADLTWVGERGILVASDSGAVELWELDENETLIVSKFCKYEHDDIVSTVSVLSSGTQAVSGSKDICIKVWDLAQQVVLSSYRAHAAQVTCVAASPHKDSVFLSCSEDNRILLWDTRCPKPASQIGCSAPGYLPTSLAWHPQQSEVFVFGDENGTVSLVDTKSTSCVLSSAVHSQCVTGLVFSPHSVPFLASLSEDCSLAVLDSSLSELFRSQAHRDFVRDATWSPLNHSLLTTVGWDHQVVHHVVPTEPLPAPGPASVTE

SMILES | IC50 (HCT116 MTAP KO cells) | Selectivity HCT 116-WT/ HCT116 MTAP KO (HCT116 MTAP KO cells) | IC50 (PRMT5-MTA; read-out: IC50) | IC50 (HCT116-WT cells) | IC50 (PRMT5-MTA)
C=C1CN(C(=O)c2cc3c(cc2Cl)nc(N)c2cnn(C)c23)N(c2ncc(Cl)cc2F)C1 [Example 434, (4-amino-7-chloro-1-methyl-1H-pyrazolo [4,3-c]quinolin-8-yl)(2-(5-chloro-3-fluoropyridin-2-yl)-4-methylenepyrazolidin-1-y 1)methanone] | 36 nM | 25.17 | 6.1 nM | 906 nM | 
Cn1ncc2c(N)nc3cc(Cl)c(C(=O)N4CC(C)(F)CN4c4ccccc4F)cc3c21 (centres unmarked) [Example 419] | 14 nM | 16.14 |  | 226 nM | 4.6 nM
Cc1cc2cc(C(=O)N(Cc3ccc(C(C)O)cn3)N(C)c3ncccn3)ccc2nc1N (centres unmarked) [Example 295, 2-amino-N-((5-(1-hydroxyethyl)pyridin-2-yl)methyl)-N',3-dimethyl-N-(pyrimidin-2-yl) quinoline-6-carbohydrazide] | 399 nM | 12.38 | 2 nM | 4940 nM | 
Cc1cc2cc(C(=O)N(Cc3ccc(C(F)(F)F)cn3)N(C)c3ncc4cc[nH]c4n3)ccc2nc1N [Example 119, 2-amino-N',3-dimethyl-N'-(7H-pyrrolo[2,3-d]pyrimidin-2-yl)-N-((5-(trifluoromethyl)pyridin-2-yl)methyl)quinoline-6-carbohydrazide] | 90 nM | 20.13 | 2.3 nM | 1810 nM | 
Cc1cc2nc(N)c3cnn(C)c3c2cc1C(=O)N1CC(=O)CN1c1ncccc1F [Example 354, 1-(4-amino-1,7-dimethyl-1H-pyrazolo[4,3-c]quinoline-8-carbonyl)-2-(3-fluoropyridin-2-yl)pyrazolin-4-one] | 62 nM | 40.76 | 3.8 nM | 2530 nM | 
Cc1cc2cc(C(=O)N(Cc3ccc(-c4cnn(C)c4)cn3)N(C)c3nccc4nccnc34)ccc2nc1N [Example 162, 2-amino-N',3-dimethyl-N-((5-(1-methyl-1H-pyrazol-4-yl)pyridin-2-yl)methyl)-N'-(pyrido[3,4-b]pyrazin-5-yl)quinoline-6-carbohydrazide] | 36 nM | 23.61 | 5.4 nM | 850 nM | 
Cc1cc2cc(C(=O)N(Cc3ccc(C4(F)COC4)cn3)N(C)c3ncccn3)ccc2nc1N [Example 286, 2-amino-N-((5-(3-fluorooxetan-3-yl)pyridin-2-yl)methyl)-N',3-dimethyl-N'-(pyrimidin-2-yl)quinoline-6-carbohydrazide] | 91 nM | 26.60 | 2.7 nM | 2420 nM | 
[2H]C([2H])([2H])N(c1ncccn1)N(Cc1ccc(C(F)(F)F)cn1)C(=O)c1ccc2nc(N)c(C)cc2c1 [Example 2, 2-amino-3-methyl-N'-(methyl-d3)-N'-(pyrimidin-2-yl)-N-((5-(trifluoromethyl)pyridin-2-yl)methyl)quinoline-6-carbohydrazide] | 30 nM | 27.33 | 2.1 nM | 820 nM | 
Cc1cc2cc(C(=O)N(Cc3ccc(-c4cnn(C5COC5)c4)cn3)N(C)c3ncccn3)ccc2nc1N [Example 169, 2-amino-N',3-dimethyl-N-((5-(1-(oxetan-3-yl)-1H-pyrazol-4-yl)pyridin-2-yl)methyl)-N'-(pyrimidin-2-yl)quinoline-6-carbohydrazide] | 39 nM | 24.95 | 2.5 nM | 973 nM | 
COC1CN(C(=O)c2cc3c(cc2C)nc(N)c2cnn(C)c23)N(c2cc(F)ccc2F)C1 (centres unmarked) [Example 445, (4-amino-1,7-dimethyl-1H-pyrazolo[4,3-c]quinolin-8-yl)(2-(2,5-difluorophenyl)-4-methoxypyrazolidin-1-yl)methanone] | 22 nM | 24.91 | 6.4 nM | 548 nM | 
C=Cc1cccnc1N(C)N(Cc1ccc(C(F)(F)F)cn1)C(=O)c1ccc2nc(N)c(C)cc2c1 [Example 133, 2-amino-N',3-dimethyl-N-((5-(trifluoromethyl)pyridin-2-yl)methyl)-N'-(3-vinylpyridin-2-yl)quinoline-6-carbohydrazide] | 312 nM | 10.89 | 3.6 nM | 3400 nM | 
Cc1cc2nc(N)c3cnn(C)c3c2cc1C(=O)N1CC(C)CN1c1ccc(OC(F)(F)F)cn1 (centres unmarked) [Example 384, (4-amino-1,7-dimethyl-1H-pyrazolo[4,3-c]quinolin-8-yl)(4-methyl-2-(5-(trifluoromethoxy)pyridin-2-yl)pyrazolidin-1-yl)m ethanone] | 238 nM | 14.35 | 4.1 nM | 3420 nM | 
COc1ccccc1N1CC(C)CN1C(=O)c1cc2c(cc1C)nc(N)c1cnn(C)c12 (centres unmarked) [Example 401, (4-amino-1,7-dimethyl-1H-pyrazolo[4,3-c]quinolin-8-yl)(2-(2-methoxyphenyl)-4-methylpyrazolidin-1-yl)methanone] | 204 nM | >49.02 | 3.5 nM | > 10000 nM | 
Cc1cc2cc(C(=O)N(Cc3ccc(-c4scnc4C#N)cn3)N(C)c3ncccn3)ccc2nc1N [Example 243, 2-amino-N-((5-(4-cyanothiazol-5-yl)pyridin-2-yl)methyl)-N',3-dimethyl-N'-(pyrimidin-2-yl)quinoline-6-carbohydrazide] | 6.5 nM | 22.77 | 3.4 nM | 148 nM | 
Cc1cnc(N2CC(C)CN2C(=O)c2cc3c(cc2C)nc(N)c2cnn(C)c23)c(F)c1 (centres unmarked) [Compound 490, (4-amino-1,7-dimethyl-1H-pyrazolo[4,3-c]quinolin-8-yl)(2-(3-fluoro-5-methylpyridin-2-yl)-4-methylpyrazolidin-1-yl)metha none] | 26 nM | 38.96 | 5.1 nM | 1010 nM | 
COc1ccc(-c2ccc(CN(C(=O)c3ccc4nc(N)c(C)cc4c3)N(C)c3ncccn3)nc2)cn1 [Example 174, 2-amino-N-((6'-methoxy-[3,3'-bipyridine] -6-yl)methyl)-N',3-dimethyl-N'-(pyrimidin-2-yl)quinoline-6-carbohydrazide] | 41 nM | 26.22 | 2.3 nM | 1080 nM | 
Cc1cc2nc(N)c3cnn(C)c3c2cc1C(=O)N1CC(CC(F)(F)F)CN1c1ncccc1F (centres unmarked) [Example 408] | 10 nM | 20.30 |  | 203 nM | 4.8 nM
COc1nc(C)ccc1-c1ccc(CN(C(=O)c2ccc3nc(N)c(C)cc3c2)N(C)c2ncccn2)nc1 [Example 137, 2-amino-N-((2'-methoxy-6'-methyl-[3,3'-bipyridine]-6-yl)methyl)-N',3-dimethyl-N'-(pyrimidin-2-yl)quinoline-6-carbohydrazide] | 110 nM | 18.07 | 1.3 nM | 1990 nM | 
Cc1cc2nc(N)c3cnn(C)c3c2cc1C(=O)N1CC(C)CN1c1ccccc1 (centres unmarked) [Example 396, (4-amino-1,7-dimethyl-1H-pyrazolo[4,3-c]quinolin-8-yl)(4-methyl-2-phenylpyrazolidin-1-yl)methanone] | 298 nM | 16.21 | 5.2 nM | 4830 nM | 
Cc1cc2cc(C(=O)N(Cc3ccc(-c4ccc(C#N)nc4)cn3)N(C)c3ncccn3)ccc2nc1N [Example 139, 2-amino-N-((6'-cyano-[3,3'-bipyridine]-6-yl)methyl)-N',3-dimethyl-N'-(pyrimidin-2-yl)quinoline-6-carbohydrazide] | 22 nM | 12.77 | 3 nM | 281 nM | 
CN(c1ncccn1)N(Cc1ccc(C(F)(F)F)cn1)C(=O)c1ccc2nc(N)c(C3CC3)cc2c1 [Example 25, 2-amino-3-cyclopropyl-N'-methyl-N'-(pyrimidin-2-yl)-N-((5-(trifluoromethyl)pyridin-2-yl)methyl)quinoline-6-carbohydrazide] | 110 nM | 25.64 | 2 nM | 2820 nM | 
Cc1cc2cc(C(=O)N(Cc3ccc(C(F)(F)F)cn3)N(C)c3c(F)cccc3F)ccc2nc1N [Compound 116, 2-amino-N'-(2,6-difluorophenyl)-N',3-di methyl-N-((5-(trifluoromethyl)pyridin-2-yl)methyl)quinoline-6-carbohydrazide] | 78 nM | 37.85 | 4.7 nM | 2950 nM | 
Cc1cc2nc(N)c3cnn(C)c3c2cc1C(=O)N1CC2(CN1c1ncccc1F)CC(F)(F)C2 [Example 410, (4-amino-1,7-dimethyl-1H-pyrazolo[4,3-c]quinolin-8-yl)(2,2-difluoro-7-(3-fluoropyridin-2-yl)-6,7-diazaspiro[3.4]octan-6-yl)methanone] | 9 nM | 24.33 | 5.2 nM | 219 nM | 
